Source: PMC11370357 (bioRxiv, 2024)

Biological target: T1, GPRC6A (Homo sapiens, UniProt Q5T6X5)
T1 sequence (Q5T6X5 19-926): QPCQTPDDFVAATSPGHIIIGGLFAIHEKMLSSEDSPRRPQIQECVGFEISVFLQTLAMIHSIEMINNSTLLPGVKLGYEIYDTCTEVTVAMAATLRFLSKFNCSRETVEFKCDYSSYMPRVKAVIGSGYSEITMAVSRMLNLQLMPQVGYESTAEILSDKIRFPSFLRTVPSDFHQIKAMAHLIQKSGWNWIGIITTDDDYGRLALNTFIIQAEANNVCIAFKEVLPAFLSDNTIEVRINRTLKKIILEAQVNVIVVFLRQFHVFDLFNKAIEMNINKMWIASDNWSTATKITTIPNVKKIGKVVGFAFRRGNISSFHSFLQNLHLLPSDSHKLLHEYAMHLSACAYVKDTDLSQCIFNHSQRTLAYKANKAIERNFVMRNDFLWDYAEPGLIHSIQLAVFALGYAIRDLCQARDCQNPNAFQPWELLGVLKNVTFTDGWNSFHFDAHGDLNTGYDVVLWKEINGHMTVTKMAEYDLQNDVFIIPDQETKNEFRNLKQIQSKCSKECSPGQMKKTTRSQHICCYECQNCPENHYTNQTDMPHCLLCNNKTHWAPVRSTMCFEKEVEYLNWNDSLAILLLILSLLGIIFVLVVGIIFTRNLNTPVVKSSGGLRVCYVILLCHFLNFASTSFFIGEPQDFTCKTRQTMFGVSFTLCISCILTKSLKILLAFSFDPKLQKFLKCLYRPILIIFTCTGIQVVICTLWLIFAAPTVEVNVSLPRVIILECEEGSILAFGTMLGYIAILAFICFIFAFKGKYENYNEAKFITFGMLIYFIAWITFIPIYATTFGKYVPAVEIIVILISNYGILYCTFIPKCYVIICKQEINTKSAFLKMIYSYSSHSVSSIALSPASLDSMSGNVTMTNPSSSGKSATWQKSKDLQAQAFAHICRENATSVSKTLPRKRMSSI
Format: cell-based

SMILES: CN(C)C(=N)N=C(N)N [metformin, 1,1-dimethylbiguanide]
- EC50: 284 µM
